Type in all cases: functional
Assay [1] concerns Mycobacterium tuberculosis. Kind of assay: Growth inhibition of Mycobacterium tuberculosis H37Ra Lehmann and Neumann ATCC 25177 harboring pSMT1 luciferase reporter at 10 uM after 6 days by luminescence based serial dilution method relative to control. The following applies: H37Ra Lehmann and Neumann ATCC 25177, 144 h, read-out: GI. In general terms: A reporter such as luciferase makes a cellular process visible.

Assay [2] concerns Mycobacterium tuberculosis. Kind of assay: Growth inhibition of Mycobacterium tuberculosis H37Ra Lehmann and Neumann ATCC 25177 harboring pSMT1 luciferase reporter at 1 uM after 6 days by luminescence based serial dilution method relative to control. The following applies: H37Ra Lehmann and Neumann ATCC 25177, 144 h, read-out: GI.
The test system of assay [3] is Mycobacterium tuberculosis. The experiment in a line: Growth inhibition of Mycobacterium tuberculosis H37Ra Lehmann and Neumann ATCC 25177 harboring pSMT1 luciferase reporter at 0.1 uM after 6 days by luminescence based serial dilution method relative to control. The following applies: H37Ra Lehmann and Neumann ATCC 25177, 144 h, read-out: GI.
Assay [4] has as its system Mycobacterium tuberculosis. Kind of assay: Antimycobacterial activity against Mycobacterium tuberculosis H37Ra Lehmann and Neumann ATCC 25177 harboring pSMT1 luciferase reporter after 6 days by luminescence based serial dilution method. The following applies: H37Ra Lehmann and Neumann ATCC 25177, 144 h.

48 compounds from ChEMBL document CHEMBL4118082 (Eur J Med Chem, 2017) can be followed below.

Broadly, the MIC90 is an inhibitory concentration at the 90% level, which refers to growth in some studies and to a panel of isolates in others.

Values after ≈ are worked out from the molar mass of the structure shown.

For `CCCCc1c(O)c2ccccc2n(Cc2ccccc2)c1=O`, the inhibition of growth at 10 µM in assay [1] amounted to 33.2%. Further, in assay [2], the inhibition of growth at 1 µM was 25.3%. Further, the inhibition of growth at 0.1 µM in assay [3] came to 20.9%.
For `CCc1c(OC(C)=O)c2ccccc2[nH]c1=O`, in that order: 29.4%, 9.4% and 3.5%.
As for `Cc1ccc2[nH]c(=O)c(-c3ccccc3)c(O)c2c1`, the inhibition of growth at 10 µM in assay [1] is 92.3%. The inhibition of growth at 1 µM in assay [2] was found to be 51.2%. Further, in assay [3], the inhibition of growth at 0.1 µM is 36.2%. In addition, the MIC90 in assay [4] was found to be 8 µM (≈ 2.01 µg/mL).
Consider `CCCCc1c(O)c2ccccc2n(-c2ccccc2)c1=O`, for which, in assay [1], the inhibition of growth at 10 µM was determined as 47.3%. The inhibition of growth at 1 µM in assay [2] was determined as 46.3%. Besides, the inhibition of growth at 0.1 µM in assay [3] amounted to 34.4%.
For `Oc1nc2ccccc2c(O)c1Cc1ccccc1`, the inhibition of growth at 10 µM in assay [1] is 53.5%. Besides, the inhibition of growth at 1 µM in assay [2] worked out at 40.2%. Also, the inhibition of growth at 0.1 µM in assay [3] stood at 7.5%.
On the same counts, the results for `CC12CCC(c3c(O)c(-c4ccccc4)c(=O)n(-c4ccccc4)c31)C2(C)C` (racemic) are 12.5%, 8.1% and 0%.
For `COc1ccc2c(O)c(-c3ccccc3)c(=O)[nH]c2c1`, in assay [1], the inhibition of growth at 10 µM was found to be 98.2%. Also, the inhibition of growth at 1 µM in assay [2] came to 74.4%. Moreover, the inhibition of growth at 0.1 µM in assay [3] was 56.5%. This compound also returned an MIC90 in assay [4] of 9.1 µM (≈ 2.43 µg/mL).
For `O=c1[nH]c2ccc(O)cc2c(O)c1-c1ccccc1`, in that order: 95.1%, 52.1%, 32.3% and 8.3 µM (≈ 2.1 µg/mL).
On to `CC(=O)Oc1cc(=O)[nH]c2ccccc12`, for which the inhibition of growth at 10 µM in assay [1] amounted to 35.4%. Besides, in assay [2], the inhibition of growth at 1 µM turned out to be 21.1%. For the same compound, the inhibition of growth at 0.1 µM in assay [3] was 14.5%.
On the same counts, the results for `COc1ccc2[nH]c(=O)c(-c3ccccc3)c(OC(C)=O)c2c1` are 79.6%, 43.2% and 22.5%.
As to `CCCCc1c(O)c2cc(Cl)ccc2[nH]c1=O`, the inhibition of growth at 10 µM in assay [1] came out at 64.8%. In addition, the inhibition of growth at 1 µM in assay [2] came to 35.4%. In assay [3], the inhibition of growth at 0.1 µM was determined as 21.6%.
Consider `COc1cccc2c(O)c(-c3ccccc3)c(O)nc12`, for which the inhibition of growth at 10 µM in assay [1] stood at 95%. Further, in assay [2], the inhibition of growth at 1 µM was determined as 47.5%. In addition, in assay [3], the inhibition of growth at 0.1 µM came to 42.5%. The MIC90 in assay [4] amounted to 7.9 µM (≈ 2.11 µg/mL).
For the compound `CO[C@H]1/C=C/O[C@@]2(C)Oc3c(C)c(O)c4c(O)c(c(/C=N/N5CCN(C)CC5)c(O)c4c3C2=O)NC(=O)/C(C)=C\C=C\[C@H](C)[C@H](O)[C@@H](C)[C@@H](O)[C@@H](C)[C@H](OC(C)=O)[C@@H]1C` [RIFAMPIN], the MIC90 in assay [4] was 0.1 µM (≈ 0.0823 µg/mL).
On to `CCc1c(OC(C)=O)c2cc(F)ccc2[nH]c1=O`, for which the inhibition of growth at 10 µM in assay [1] came out at 44.5%. Besides, the inhibition of growth at 1 µM in assay [2] worked out at 14%. Further, the inhibition of growth at 0.1 µM in assay [3] is 0%.
For `CCCc1c(O)c2ccccc2n(-c2ccccc2)c1=O`, in that order: 56.6%, 46.3% and 10.4%.
For `CCc1c(OC(C)=O)c2cc(OC)ccc2[nH]c1=O`, in that order: 27.8%, 10.1% and 0%.
Regarding `Oc1nc2ccccc2c(O)c1-c1ccccc1`, the inhibition of growth at 10 µM in assay [1] was found to be 92.4%. For the same compound, in assay [2], the inhibition of growth at 1 µM worked out at 59.2%. Further, in assay [3], the inhibition of growth at 0.1 µM worked out at 56%. The compound also showed an MIC90 in assay [4] of 8.5 µM (≈ 2.02 µg/mL).
For `CCc1c(O)c2ccc(O)cc2[nH]c1=O`, in assay [1], the inhibition of growth at 10 µM was determined as 49.4%. Besides, the inhibition of growth at 1 µM in assay [2] turned out to be 34.3%. Also, the inhibition of growth at 0.1 µM in assay [3] was determined as 25.6%.
Consider `O=c1[nH]c2cc(O)ccc2c(O)c1-c1ccccc1`, for which the inhibition of growth at 10 µM in assay [1] came to 96.3%. Moreover, the inhibition of growth at 1 µM in assay [2] came out at 61.7%. Also, the inhibition of growth at 0.1 µM in assay [3] is 53.7%. This compound also came in with an MIC90 in assay [4] of 8.2 µM (≈ 2.08 µg/mL).
In the case of `CC(=O)Oc1c(-c2ccccc2)c(=O)[nH]c2ccc(F)cc12`, the inhibition of growth at 10 µM in assay [1] is 99.2%. The inhibition of growth at 1 µM in assay [2] stood at 38%. Also, in assay [3], the inhibition of growth at 0.1 µM was 31%. For the same compound, in assay [4], the MIC90 stood at 3.8 µM (≈ 1.13 µg/mL).
As for `O=c1c(Cc2ccccc2)c(O)c2ccccc2n1-c1ccccc1`, the inhibition of growth at 10 µM in assay [1] turned out to be 56.3%. Also, in assay [2], the inhibition of growth at 1 µM is 54.7%. Besides, the inhibition of growth at 0.1 µM in assay [3] amounted to 20.3%.
For `COc1cccc2c(OC(C)=O)c(-c3ccccc3)c(=O)[nH]c12`, in that order: 76.3%, 32.5% and 8.9%.
On the same counts, the results for `CCc1c(O)c2c(C)ccc(C)c2[nH]c1=O` are 86.2%, 46.4% and 16.9%.
On the same counts, the results for `O=c1c(Cc2ccccc2)c(O)c2ccccc2n1Cc1ccccc1` are 49.5%, 38.8% and 24.8%.
Consider `CCCCc1c(O)c2cc(OC)cc(OC)c2[nH]c1=O`, for which the inhibition of growth at 10 µM in assay [1] is 62.6%. The inhibition of growth at 1 µM in assay [2] is 10.7%. The inhibition of growth at 0.1 µM in assay [3] is 0%.
For `Cn1c(=O)c(-c2ccccc2)c(O)c2ccccc21`, in that order: 87.2%, 49.5% and 29.8%.
On the same counts, the results for `CCn1c(=O)c(-c2ccccc2)c(O)c2ccccc21` are 8.2%, 0% and 0%.
For the compound `CCc1c(OC(C)=O)c2ccc(OC)cc2[nH]c1=O`, the inhibition of growth at 10 µM in assay [1] came to 28.6%. In addition, the inhibition of growth at 1 µM in assay [2] came to 15.3%. Further, in assay [3], the inhibition of growth at 0.1 µM was found to be 0%.
With `COc1ccc2c(OC(C)=O)c(-c3ccccc3)c(=O)[nH]c2c1`, the inhibition of growth at 10 µM in assay [1] turned out to be 81.2%. In addition, the inhibition of growth at 1 µM in assay [2] was determined as 39.7%. Also, the inhibition of growth at 0.1 µM in assay [3] is 20.9%.
As for `Cc1c(O)c2ccccc2n(C)c1=O`, the inhibition of growth at 10 µM in assay [1] is 83.8%. Further, in assay [2], the inhibition of growth at 1 µM came to 32.9%. The inhibition of growth at 0.1 µM in assay [3] turned out to be 4%.
On the same counts, the results for `CCc1c(O)c2cc(F)ccc2[nH]c1=O` are 57.3%, 51.3% and 40%.
As to `O=c1c(-c2ccccc2)c(O)c2ccccc2n1Cc1ccccc1`, in assay [1], the inhibition of growth at 10 µM turned out to be 71.5%. Moreover, the inhibition of growth at 1 µM in assay [2] was determined as 42.4%. Besides, the inhibition of growth at 0.1 µM in assay [3] was 31.2%.
Consider `CCc1c(OC(C)=O)c2cccc(OC)c2[nH]c1=O`, for which the inhibition of growth at 10 µM in assay [1] was determined as 31.2%. Also, in assay [2], the inhibition of growth at 1 µM is 13.3%. Further, in assay [3], the inhibition of growth at 0.1 µM was 0%.
On the same counts, the results for `CCc1c(O)c2ccc(OC)cc2[nH]c1=O` are 60.8%, 36% and 23.7%.
For the compound `CCCCc1c(O)c2c(Cl)ccc(C)c2[nH]c1=O`, in assay [1], the inhibition of growth at 10 µM was determined as 59.1%. The inhibition of growth at 1 µM in assay [2] stood at 38.7%. Also, in assay [3], the inhibition of growth at 0.1 µM stood at 30%.
For `CCCCc1c(O)c2ccccc2n(C)c1=O`, in that order: 23.9%, 10.5% and 0%.
For `Cc1c(O)c2ccccc2n(-c2ccccc2)c1=O`, in that order: 74.5%, 48.5% and 36%.
Consider `CC(C)c1c(O)c2ccccc2[nH]c1=O`, for which the inhibition of growth at 10 µM in assay [1] worked out at 69.3%. Moreover, in assay [2], the inhibition of growth at 1 µM is 47.4%. The inhibition of growth at 0.1 µM in assay [3] was 42.5%.
Consider `CCc1c(O)c2ccccc2[nH]c1=O`, for which the inhibition of growth at 10 µM in assay [1] is 98.6%. Besides, the inhibition of growth at 1 µM in assay [2] was determined as 78.2%. Moreover, the inhibition of growth at 0.1 µM in assay [3] is 59.2%.
On the same counts, the results for `CCc1c(O)c2ccccc2n(-c2ccccc2)c1=O` are 25.6%, 34.8% and 22.5%.
For `CCCc1c(O)c2cc(F)ccc2[nH]c1=O`, in that order: 78.2%, 38.5% and 13.2%.
On to `CCc1c(O)c2cc(OC)ccc2[nH]c1=O`, for which the inhibition of growth at 10 µM in assay [1] is 68.2%. Further, the inhibition of growth at 1 µM in assay [2] came out at 56.3%. The inhibition of growth at 0.1 µM in assay [3] was determined as 0%.
As for `NNC(=O)c1ccncc1` [ISONIAZID], the MIC90 in assay [4] came to 0.3 µM (≈ 0.0411 µg/mL).
On to `CCc1c(O)c2c(Cl)ccc(C)c2[nH]c1=O`, for which the inhibition of growth at 10 µM in assay [1] is 55.1%. Moreover, the inhibition of growth at 1 µM in assay [2] stood at 48.8%. The inhibition of growth at 0.1 µM in assay [3] was determined as 33.3%.
For `CCc1c(O)c2cccc(OC)c2[nH]c1=O`, in that order: 71%, 66.4% and 65.8%.
On the same counts, the results for `CC(=O)Oc1c(C)c(=O)[nH]c2ccccc12` are 45.2%, 31.8% and 19.2%.
On the same counts, the results for `CCCCc1c(O)c2c(n(-c3ccccc3)c1=O)C1(C)CCC2C1(C)C` (racemic) are 7.5%, 1.2% and 0%.
Consider `CC(=O)Oc1c(-c2ccccc2)c(=O)[nH]c2ccccc12`, for which the inhibition of growth at 10 µM in assay [1] amounted to 72.3%. In assay [2], the inhibition of growth at 1 µM came out at 35.4%. In assay [3], the inhibition of growth at 0.1 µM came to 10.9%.
